Laboratory results from patent US11957680B2, “Pyruvate kinase activators for use in treating blood disorders” (Agios Pharmaceuticals, Inc., priority 2017, dated 2024).

Key:
wild type PKR [1] = biological target: T1, wild type PKR (Homo sapiens, UniProt P30613); assay: PKR (wild type) enzyme AC50 assay, LDH/NADH-coupled, absorbance at 340 nm; type: biochemical; conditions: Table 2, enzyme assay; for AC50: read-out: PKR WT AC50
In short: (§1)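 Enzyme amount (40-400 ng/well) and substrate levels vary by PKR variant. The coupled read-out uses LDH (0.5 units) consuming NADH, tracked at 340 nm at room temperature after ADP initiation, following a one-hour compound preincubation.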

PKR K410E = PKR K410E (Homo sapiens, UniProt P30613, K410E); assay: PKR mutant assay (K410E), AC50, LDH/NADH-coupled, absorbance at 340 nm; type: biochemical; conditions: Table 2; enzyme assay
Sequence of PKR K410E (P30613 whole entry K410E): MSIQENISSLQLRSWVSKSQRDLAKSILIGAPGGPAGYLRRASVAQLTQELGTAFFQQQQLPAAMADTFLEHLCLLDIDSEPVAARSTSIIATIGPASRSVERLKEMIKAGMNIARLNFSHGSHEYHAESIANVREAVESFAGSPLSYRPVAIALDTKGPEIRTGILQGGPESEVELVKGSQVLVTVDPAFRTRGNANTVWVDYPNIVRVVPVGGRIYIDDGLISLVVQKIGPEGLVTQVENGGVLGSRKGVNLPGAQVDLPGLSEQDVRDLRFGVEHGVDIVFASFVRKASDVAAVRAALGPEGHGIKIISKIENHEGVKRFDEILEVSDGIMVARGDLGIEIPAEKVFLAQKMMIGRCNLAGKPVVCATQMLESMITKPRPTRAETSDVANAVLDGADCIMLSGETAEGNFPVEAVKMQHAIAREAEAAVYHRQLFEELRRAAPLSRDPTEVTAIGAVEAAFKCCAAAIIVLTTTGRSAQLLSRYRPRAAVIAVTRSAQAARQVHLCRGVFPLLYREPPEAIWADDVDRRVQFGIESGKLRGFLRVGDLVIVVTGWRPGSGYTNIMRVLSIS
In short: as §1

wild type PKR [2] = biological target: T1, wild type PKR; assay: Cell based ATP assay in purified red blood cells (Cell-Titer-Glo); set-up: endogenous in cells; host or cells: purified red blood cells from healthy volunteers; conditions: Table 2; RBCs, overnight at 37° C., ATP levels
In short: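 RBCs from healthy human donors' K2EDTA blood were leukocyte-depleted by filtration and resuspended in AGAM (PBS, 1% glucose, adenine, mannitol). Cells at 1×10^7 cells/mL were incubated overnight at 37 °C with serially diluted compound at 0.1% DMSO, and ATP was read by Cell-Titer-Glo luminescence.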

PKR R510Q = PKR R510Q (Homo sapiens, UniProt P30613, R510Q); assay: PKR mutant assay (R510Q), AC50, LDH/NADH-coupled, absorbance at 340 nm; type: biochemical; conditions: Table 2, enzyme assay; for AC50: read-out: PK R510Q AC50
Sequence of PKR R510Q (P30613 whole entry R510Q): as the sequence (P30613 whole entry K410E) above, with E410K, R510Q counted along it
In short: as §1

T1 sequence (P30613 whole entry): as the sequence (P30613 whole entry K410E) above, with E410K counted along it

AC50 (wild type PKR [1]) [nM] | AC50 (PKR K410E) [nM] | AC50 (wild type PKR [2]) [nM] | AC50 (PKR R510Q) [nM] | Cell based ATP assay AC50 (wild type PKR [2]) | PK R510Q AC50 (PKR R510Q) | PKR WT AC50 (wild type PKR [1]) | PKR K410E AC50 (PKR K410E) | SMILES
< 300 | < 300 | ≤ 1000 | < 300 |  |  |  |  | CNc1cccc(Cn2ncc3c4sc(C)nc4n(C)c3c2=O)c1 [Compound 70]
> 800 | > 800 | > 1000 | > 800 |  |  |  |  | Cc1nc2c(s1)c1cnn(Cc3cn[nH]c3)c(=O)c1n2C [Compound 72]
> 800 | > 800 | ≤ 1000 |  |  | No Fit |  |  | Cn1c2nc([S+](C)[O-])sc2c2cnn(Cc3ccc(C#N)cc3)c(=O)c21 (stereo not shown) [Compound 75]
< 300 | < 300 | ≤ 1000 | < 300 |  |  |  |  | Cn1c2nc(Cc3ccc(O)cc3)sc2c2cnn(Cc3cccc4[nH]ncc34)c(=O)c21 [Compound 77]
< 300 | < 300 | ≤ 1000 | < 300 |  |  |  |  | Cn1c2nc([S+](C)[O-])sc2c2cnn(Cc3cccc4c3CCN4)c(=O)c21 (stereo not shown) [Compound 79]
> 800 | > 800 | > 1000 | < 300 |  |  |  |  | Cn1c2nc([S+](C)[O-])sc2c2cnn(Cc3cccc4c3CCNC4)c(=O)c21 (stereo not shown) [Compound 80]
< 300 | 301 to 800 | > 1000 | 301 to 800 |  |  |  |  | Cn1c2nc(C#N)sc2c2cnn(Cc3cccc4[nH]ncc34)c(=O)c21 [Compound 84]
< 300 | > 800 | > 1000 | > 800 |  |  |  |  | CC(=O)c1cccc(Cn2ncc3c4sc([S+](C)[O-])nc4n(C)c3c2=O)c1 (stereo not shown) [Compound 86]
< 300 | < 300 | > 1000 | < 300 |  |  |  |  | Cn1c2nc([S+](C)[O-])sc2c2cnn(Cc3ccc4c(c3)OCCO4)c(=O)c21 (stereo not shown) [Compound 90]
< 300 | < 300 | ≤ 1000 | < 300 |  |  |  |  | Cn1c2nc(Cc3ccccc3)sc2c2cnn(Cc3cccc4[nH]ncc34)c(=O)c21 [Compound 91]
> 800 | > 800 | > 1000 |  |  | No Fit |  |  | Cn1c2nc([S+](C)[O-])sc2c2cnn(Cc3cnc(N)nc3)c(=O)c21 (stereo not shown) [Compound 94]
< 300 | 301 to 800 | ≤ 1000 | 301 to 800 |  |  |  |  | Cn1c2nc(Cc3cccc(C#N)c3)sc2c2cnn(Cc3cccc4[nH]ncc34)c(=O)c21 [Compound 99]

Further lines, the compound ahead of its results:

SMILES | AC50 (wild type PKR [1]) [nM] | AC50 (PKR K410E) [nM] | AC50 (wild type PKR [2]) [nM] | AC50 (PKR R510Q) [nM] | Cell based ATP assay AC50 (wild type PKR [2]) | PK R510Q AC50 (PKR R510Q) | PKR WT AC50 (wild type PKR [1]) | PKR K410E AC50 (PKR K410E)
COc1cccc(Cn2ncc3c4sc(Cc5ccc(C#N)cc5)nc4n(C)c3c2=O)c1 [Compound 64] | < 300 | < 300 | ≤ 1000 | < 300 |  |  |  | 
Cc1nc2c(s1)c1cnn(Cc3cccc4cn[nH]c34)c(=O)c1n2C [Compound 65] | > 800 | 301 to 800 | > 1000 | 301 to 800 |  |  |  | 
CCOC(=O)Cn1ncc2c3sc(C)nc3n(C)c2c1=O [Compound 66] | > 800 | > 800 |  |  | No Fit | No Fit |  | 
Cc1nc2c(s1)c1cnn(CCO)c(=O)c1n2C [Compound 67] | > 800 | > 800 |  |  | No Fit | No Fit |  | 
Cc1nc2c(s1)c1cnn(Cc3cc[nH]n3)c(=O)c1n2C [Compound 68] | < 300 | < 300 | ≤ 1000 | < 300 |  |  |  | 
CNc1ccc(Cn2ncc3c4sc(C)nc4n(C)c3c2=O)cc1 [Compound 69] | > 800 | > 800 | > 1000 | 301 to 800 |  |  |  | 
Cn1c2nc([S+](C)[O-])sc2c2cnn(Cc3cccc4[nH]ncc34)c(=O)c21 (stereo not shown) [Compound 71] | 301 to 800 | 301 to 800 | ≤ 1000 | 301 to 800 |  |  |  | 
Cc1nc2c(s1)c1cnn(Cc3ccc4[nH]cnc4c3)c(=O)c1n2C [Compound 73] | > 800 | 301 to 800 | > 1000 | 301 to 800 |  |  |  | 
Cc1nc2c(s1)c1cnn(Cc3cccc(N)n3)c(=O)c1n2C [Compound 74] | < 300 | < 300 | ≤ 1000 | < 300 |  |  |  | 
Cc1nc2c(s1)c1cnn(Cc3cccc4c3cnn4C)c(=O)c1n2C [Compound 76] | > 800 | < 300 | ≤ 1000 | < 300 |  |  |  | 
Cn1c2nc([S+](C)[O-])sc2c2cnn(Cc3ccnc(N)c3)c(=O)c21 (stereo not shown) [Compound 78] | > 800 | > 800 | ≤ 1000 | > 800 |  |  |  | 
Cn1c2nc(Cc3cc[nH]n3)sc2c2cnn(Cc3cccc4[nH]ncc34)c(=O)c21 [Compound 81] | < 300 | < 300 | ≤ 1000 | < 300 |  |  |  | 
Cn1c2nc(C(N)=O)sc2c2cnn(Cc3cccc4[nH]ncc34)c(=O)c21 [Compound 82] | < 300 | 301 to 800 | > 1000 | 301 to 800 |  |  |  | 
Cn1c2nc([S+](C)[O-])sc2c2cnn(Cc3csc(N)n3)c(=O)c21 (stereo not shown) [Compound 83] | < 300 | < 300 | ≤ 1000 | < 300 |  |  |  | 
CSc1nc2c(s1)c1cnn(Cc3cccc(C(C)(C)O)c3)c(=O)c1n2C [Compound 85] | < 300 | 301 to 800 | ≤ 1000 | < 300 |  |  |  | 
Cn1c2nc([S+](C)[O-])sc2c2cnn(Cc3cccc(C(C)(C)O)c3)c(=O)c21 (stereo not shown) [Compound 87] | < 300 | < 300 | ≤ 1000 | 301 to 800 |  |  |  | 
CC(O)c1cccc(Cn2ncc3c4sc([S+](C)[O-])nc4n(C)c3c2=O)c1 (stereo not shown) [Compound 88] | < 300 | 301 to 800 | ≤ 1000 | 301 to 800 |  |  |  | 
Cn1c2nc(Cc3cccc(O)c3)sc2c2cnn(Cc3cccc4[nH]ncc34)c(=O)c21 [Compound 89] | < 300 | < 300 | ≤ 1000 | < 300 |  |  |  | 
Cn1c2nc(S(C)(=O)=O)sc2c2cnn(Cc3cccc4[nH]ncc34)c(=O)c21 [Compound 92] | < 300 | 301 to 800 | ≤ 1000 | 301 to 800 |  |  |  | 
Cn1c2nc(Cc3ccc(C#N)cc3)sc2c2cnn(Cc3cccc4[nH]ncc34)c(=O)c21 [Compound 93] | > 800 | > 800 | > 1000 | > 800 |  |  |  | 
CSc1nc2c(s1)c1cnn(Cc3cnc(=O)[nH]c3)c(=O)c1n2C [Compound 95] |  |  |  |  | No Fit | No Fit | No Fit | No Fit
CSc1nc2c(s1)c1cnn(Cc3ccnc(=O)[nH]3)c(=O)c1n2C [Compound 96] | > 800 | > 800 |  |  | No Fit | No Fit |  | 
Cn1c2nc([S+](C)[O-])sc2c2cnn(Cc3ccnc(N)n3)c(=O)c21 (stereo not shown) [Compound 97] | > 800 | > 800 | > 1000 | > 800 |  |  |  | 
Cn1c2nc([S+](C)[O-])sc2c2cnn(Cc3ccc(C(N)=O)cc3)c(=O)c21 (stereo not shown) [Compound 98] |  | > 800 | > 1000 |  |  | No Fit | No Fit | 
Cn1c2nc(Cc3cccc(C(N)=O)c3)sc2c2cnn(Cc3cccc4[nH]ncc34)c(=O)c21 [Compound 100] | < 300 | < 300 | ≤ 1000 | < 300 |  |  |  | 
